Reference: ChEMBL document CHEMBL3232823, “Non-imidazole histamine H3 receptor ligands incorporating antiepileptic moieties” (Eur J Med Chem, 2014)
The source made the active and inactive calls. The rule behind the calls is not given here.

Key:
Histamine H4 receptor = Histamine H4 receptor (Homo sapiens, UniProt Q9H3N8); test: Displacement of [3H]histamine from human H4 receptor expressed in Sf9 cell membrane co-transfected with Galphai2 and Gbeta1gamma2 after 60 mins by liquid scintillation counting analysis
Rattus norvegicus [1] = test: Anticonvulsant activity in Wistar rat assessed as protection against maximal electroshock-induced convulsions at 10 mg/kg, ip administered 30 mins before MES challenge; format: functional, organism-based; parameters: dose 10 mg/kg
Rattus norvegicus [2] = test: Anticonvulsant activity against PTZ-kindled convulsion Wistar rat model assessed as prolongation of latency time to myoclonic convulsions at 10 mg/kg, ip administered 30 mins before PTZ challenge; format: functional, organism-based; parameters: dose 10 mg/kg
Rattus norvegicus [3] = test: Anticonvulsant activity against PTZ-kindled convulsion Wistar rat model assessed as reduction in convulsions at 10 mg/kg, ip administered 30 mins before PTZ challenge measured for 10 to 30 mins; format: functional, organism-based; parameters: dose 10 mg/kg
Rattus norvegicus [4] = test: Anticonvulsant activity against PTZ-kindled convulsion Wistar rat model assessed as reduction in convulsions at 1 mg/kg, ip administered 30 mins before PTZ challenge measured for 10 to 30 mins; format: functional, organism-based; parameters: dose 1 mg/kg
Rattus norvegicus [5] = test: Anticonvulsant activity against PTZ-kindled convulsion Wistar rat model assessed as increase in latency time to clonic-tonic convulsions at 10 mg/kg, ip administered 30 mins before PTZ challenge; format: functional, organism-based; parameters: dose 10 mg/kg
Rattus norvegicus [6] = test: Anticonvulsant activity in Wistar rat assessed as protection against maximal electroshock-induced convulsions at 1 mg/kg, ip administered 30 mins before MES challenge; format: functional, organism-based; parameters: dose 1 mg/kg
Rattus norvegicus [7] = test: Anticonvulsant activity against PTZ-kindled convulsion Wistar rat model assessed as latency for the first atypical behaviours at 10 mg/kg, ip administered 30 mins before PTZ challenge; format: functional, organism-based; parameters: dose 10 mg/kg
Histamine H1 receptor = Histamine H1 receptor (Homo sapiens, UniProt P35367); test: Displacement of [3H]pyrilamine from human H1 receptor expressed in CHO cell membrane after 120 mins by liquid scintillation counting analysis; format: cell membranes
Rattus norvegicus [8] = test: Anticonvulsant activity against PTZ-kindled convulsion Wistar rat model assessed as decrease in total convulsion time at 10 mg/kg, ip administered 30 mins before PTZ challenge; format: functional, organism-based; parameters: dose 10 mg/kg
Histamine H3 receptor = Histamine H3 receptor (Homo sapiens, UniProt Q9Y5N1); test: Displacement of [3H]N-alpha-methylhistamine from human H3 receptor expressed in HEK-293 cell membrane after 90 mins by liquid scintillation counting analysis; format: cell membranes, HEK293
Rattus norvegicus [9] = test: Anticonvulsant activity in Wistar rat assessed as protection against maximal electroshock-induced convulsions at 1 to 10 mg/kg, ip administered 30 mins before MES challenge; format: functional, organism-based
Rattus norvegicus [10] = test: Anticonvulsant activity against PTZ-kindled convulsion Wistar rat model assessed as reduction in convulsions at 1 to 10 mg/kg, ip administered 30 mins before PTZ challenge measured for 10 to 30 mins; format: functional, organism-based
Rattus norvegicus [11] = test: Proconvulsant activity in maximal electroshock-induced convulsions Wistar rat model assessed as tonic hindlimb extensions at 1 to 10 mg/kg, ip administered 30 mins before MES challenge; format: ADME, organism-based; parameters: dose 1-10 mg/kg, route intraperitoneal; details: in vivo, 0.5 h

Histamine H1 receptor, sequence (P35367 whole entry): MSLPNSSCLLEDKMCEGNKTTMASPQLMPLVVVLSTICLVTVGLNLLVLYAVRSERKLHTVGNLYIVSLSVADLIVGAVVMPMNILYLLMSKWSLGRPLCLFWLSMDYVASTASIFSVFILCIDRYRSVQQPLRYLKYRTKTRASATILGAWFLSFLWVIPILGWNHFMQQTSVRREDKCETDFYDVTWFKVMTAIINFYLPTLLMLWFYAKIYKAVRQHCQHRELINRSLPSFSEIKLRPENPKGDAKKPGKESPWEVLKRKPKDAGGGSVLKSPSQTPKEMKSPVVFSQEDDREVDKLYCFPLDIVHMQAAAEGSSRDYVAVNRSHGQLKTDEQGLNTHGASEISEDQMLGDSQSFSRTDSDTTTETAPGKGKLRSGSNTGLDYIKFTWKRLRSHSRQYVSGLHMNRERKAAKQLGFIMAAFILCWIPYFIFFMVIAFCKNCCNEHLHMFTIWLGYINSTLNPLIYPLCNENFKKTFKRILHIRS
Histamine H3 receptor, sequence (Q9Y5N1 whole entry): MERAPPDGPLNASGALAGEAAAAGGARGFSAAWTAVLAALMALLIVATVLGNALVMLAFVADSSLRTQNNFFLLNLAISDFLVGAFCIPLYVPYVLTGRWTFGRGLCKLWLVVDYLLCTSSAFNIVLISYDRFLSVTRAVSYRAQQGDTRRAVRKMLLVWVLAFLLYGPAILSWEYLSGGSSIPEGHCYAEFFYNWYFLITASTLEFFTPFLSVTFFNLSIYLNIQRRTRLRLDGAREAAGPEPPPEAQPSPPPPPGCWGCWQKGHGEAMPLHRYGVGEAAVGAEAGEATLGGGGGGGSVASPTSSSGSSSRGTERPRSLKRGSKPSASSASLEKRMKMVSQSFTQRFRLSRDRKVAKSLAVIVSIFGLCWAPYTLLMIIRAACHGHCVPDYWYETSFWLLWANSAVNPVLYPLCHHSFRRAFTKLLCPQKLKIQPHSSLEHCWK

Compound	Ki (Histamine H4 receptor) [µM]	Ki (Histamine H1 receptor) [µM]	Ki (Histamine H3 receptor) [µM]	Activity (Rattus norvegicus [9])	also measured
Clc1ccc(CCCOCCCN2CCCCC2)cc1 [PITOLISANT]	> 10				Activity (Rattus norvegicus [1]): Active
S=C(NC1CCCCC1)N1CCC(c2cnc[nH]2)CC1 [THIOPERAMIDE]		> 10			
Cc1nnc(-c2cccnc2)n1-c1ccc(OCCCN2CCCCC2)cc1	1410	10.5	0.00024	inactive	
O=C1NC(=O)C(c2ccccc2)(c2ccccc2)N1					Activity (Rattus norvegicus [1]): Active

Continued, in another order:

Ki (Histamine H4 receptor) [µM]	Ki (Histamine H1 receptor) [µM]	Ki (Histamine H3 receptor) [µM]	Compound	Activity (Rattus norvegicus [9])	also measured
490	6.17	0.562	O=C1NC(c2ccccc2)(c2ccccc2)C(=O)N1CCCN1CCCCC1		Activity (Rattus norvegicus [2]): Active; inhibition (Rattus norvegicus [3]): Active; inhibition (Rattus norvegicus [4]): inactive; Activity (Rattus norvegicus [5]): Active; Activity (Rattus norvegicus [6]): Active; Activity (Rattus norvegicus [7]): inactive; Activity (Rattus norvegicus [8]): Active
331	31.6	0.0427	C[C@H](NCc1ccc(OCCCN2CCCCC2)cc1)C(N)=O	inactive	
20.4	29.5	0.000933	Cc1nnc(C)n1-c1ccc(OCCCN2CCCCC2)cc1	inactive	
9.33	2.24	0.0759	O=C1NC(c2ccccc2)(c2ccccc2)C(=O)N1Cc1ccc(OCCCN2CCCCC2)cc1	inactive	inhibition (Rattus norvegicus [10]): inactive; Activity (Rattus norvegicus [11]): Toxic
